Values after ≈ are worked out from the molar mass of the structure shown.

As usually defined, the MIC50 is an inhibitory concentration at the 50% level, which refers to growth in some studies and to a panel of isolates in others. As usually defined, the MIC90 is the lowest concentration that inhibits either 90% of growth or 90% of the strains tested, depending on the study. As usually defined, the MIC is the lowest concentration that inhibits growth of the organism.

Common to all, as to assay type: functional
Conditions in all cases: Mycoplasmoides genitalium

The subject of test [1] is Mycoplasma genitalium. Put plainly: Antibacterial activity against Mycoplasma genitalium by broth dilution method. A general note: In broth dilution the organism is exposed to a series of concentrations in liquid medium.
The subject of test [2] is Mycoplasma genitalium. Put plainly: Antibacterial activity against Mycoplasma genitalium by quantitative TaqMan PCR method. On the technique in general: Quantitative PCR measures a nucleic acid by following its amplification.
The subject of test [3] is Mycoplasma genitalium. Put plainly: Antibacterial activity against Mycoplasma genitalium G37 by broth dilution method.
Test [4] concerns Mycoplasma genitalium. Put plainly: Antibacterial activity against Mycoplasma genitalium M30 by broth dilution method.
The subject of test [5] is Mycoplasma genitalium. The test can be described thus: Antibacterial activity against Mycoplasma genitalium R32 by broth dilution method.
The subject of test [6] is Mycoplasma genitalium. The test can be described thus: Antibacterial activity against Mycoplasma genitalium TW10-5G by broth dilution method.
Test [7] relates to Mycoplasma genitalium. The test can be described thus: Antibacterial activity against Mycoplasma genitalium TW10-6G by broth dilution method.
Test [8] concerns Mycoplasma genitalium. The test can be described thus: Antibacterial activity against Mycoplasma genitalium TW48-5G by broth dilution method.
The subject of test [9] is Mycoplasma genitalium. The test can be described thus: Antibacterial activity against Mycoplasma genitalium UTMB-10G by broth dilution method.
Test [10] deals with Mycoplasma genitalium. Put plainly: Antibacterial activity against Mycoplasma genitalium M2282 by broth dilution method.
The test system of test [11] is Mycoplasma genitalium. The test can be described thus: Antibacterial activity against Mycoplasma genitalium M2300 by broth dilution method.
The subject of test [12] is Mycoplasma genitalium. The test can be described thus: Antibacterial activity against Mycoplasma genitalium M2321 by broth dilution method.
For test [13], the system named is Mycoplasma genitalium. The test can be described thus: Antibacterial activity against Mycoplasma genitalium M2341 by broth dilution method.
Test [14] has as its system Mycoplasma genitalium. Put plainly: Antibacterial activity against Mycoplasma genitalium M6257 by broth dilution method.
Test [15] has as its system Mycoplasma genitalium. The test can be described thus: Antibacterial activity against Mycoplasma genitalium M6280 by broth dilution method.
Test [16] relates to Mycoplasma genitalium. The test can be described thus: Antibacterial activity against Mycoplasma genitalium M6285 by broth dilution method.
The test system of test [17] is Mycoplasma genitalium. Put plainly: Antibacterial activity against Mycoplasma genitalium M6286 by broth dilution method.
For test [18], the system named is Mycoplasma genitalium. Put plainly: Antibacterial activity against Mycoplasma genitalium M6328 by broth dilution method.
In test [19] the test system is Mycoplasma genitalium. Put plainly: Antibacterial activity against Mycoplasma genitalium M6090 by broth dilution method.
In test [20] the test system is Mycoplasma genitalium. The test can be described thus: Antibacterial activity against Mycoplasma genitalium M6151 by broth dilution method.
The subject of test [21] is Mycoplasma genitalium. Put plainly: Antibacterial activity against Mycoplasma genitalium M6282 by broth dilution method.
The test system of test [22] is Mycoplasma genitalium. Put plainly: Antibacterial activity against Mycoplasma genitalium M6283 by broth dilution method.
Test [23] relates to Mycoplasma genitalium. Put plainly: Antibacterial activity against Mycoplasma genitalium M6284 by broth dilution method.
Test [24] has as its system Mycoplasma genitalium. Put plainly: Antibacterial activity against Mycoplasma genitalium M6287 by broth dilution method.

Turning to `CC[C@H]1OC(=O)[C@H](C)[C@@H](O[C@H]2C[C@@](C)(OC)[C@@H](O)[C@H](C)O2)[C@H](C)[C@@H](O[C@@H]2O[C@H](C)C[C@H](N(C)C)[C@H]2O)[C@](C)(OC)C[C@@H](C)C(=O)[C@H](C)[C@@H](O)[C@]1(C)O` [CLARITHROMYCIN], the MIC50 in the test with Mycoplasma genitalium [1] was found to be 0.004 µg/mL (≈ 0.00535 µM); in the test on Mycoplasma genitalium [2], 0.032 µg/mL (≈ 0.0428 µM). The figures for the MIC90 against Mycoplasma genitalium [1] and against Mycoplasma genitalium [2] were 0.008 µg/mL (≈ 0.0107 µM) and 0.063 µg/mL (≈ 0.0842 µM), respectively. Further, the MIC against Mycoplasma genitalium [3], in the test with Mycoplasma genitalium [4], with Mycoplasma genitalium [5], against Mycoplasma genitalium [6], in the test on Mycoplasma genitalium [7] and in the test on Mycoplasma genitalium [8] was 0.002 µg/mL (≈ 0.00267 µM) each time. Further, the MIC against Mycoplasma genitalium [9] came out at 0.002 µg/mL (≈ 0.00267 µM).

As for `CN(C)[C@@H]1C(O)=C(C(N)=O)C(=O)[C@@]2(O)C(O)=C3C(=O)c4c(O)cccc4[C@@](C)(O)[C@H]3C[C@@H]12` [TETRACYCLINE], the MIC50 is 0.125 µg/mL (≈ 0.281 µM) in the test with Mycoplasma genitalium [1] (read-out: MIC50) and 0.5 µg/mL (≈ 1.13 µM) against Mycoplasma genitalium [2]. Besides, the MIC90 in the test with Mycoplasma genitalium [1] (read-out: MIC90) stood at 0.5 µg/mL (≈ 1.13 µM); in the test with Mycoplasma genitalium [2] it was 2 µg/mL (≈ 4.5 µM). The MIC in the test on Mycoplasma genitalium [3] (read-out: MIC), in the test on Mycoplasma genitalium [4] (read-out: MIC), with Mycoplasma genitalium [5] (read-out: MIC), with Mycoplasma genitalium [6] (read-out: MIC), with Mycoplasma genitalium [7] (read-out: MIC) and in the test on Mycoplasma genitalium [8] (read-out: MIC) was 0.063 µg/mL (≈ 0.142 µM) in each case. Besides, the MIC in the test on Mycoplasma genitalium [9] (read-out: MIC), with Mycoplasma genitalium [10], with Mycoplasma genitalium [11], against Mycoplasma genitalium [12], with Mycoplasma genitalium [13] and with Mycoplasma genitalium [14] was 0.063 µg/mL (≈ 0.142 µM) throughout. In addition, the MIC in the test on Mycoplasma genitalium [15], in the test on Mycoplasma genitalium [16], with Mycoplasma genitalium [17], in the test with Mycoplasma genitalium [18], with Mycoplasma genitalium [19] and against Mycoplasma genitalium [20] was 0.063 µg/mL (≈ 0.142 µM) in each case. For the same molecule, the MIC against Mycoplasma genitalium [21], in the test on Mycoplasma genitalium [22], in the test with Mycoplasma genitalium [23] and in the test on Mycoplasma genitalium [24] was 0.063 µg/mL (≈ 0.142 µM) each time.

Turning to `C[C@H]1COc2c(N3CCN(C)CC3)c(F)cc3c(=O)c(C(=O)O)cn1c23.C[C@H]1COc2c(N3CCN(C)CC3)c(F)cc3c(=O)c(C(=O)O)cn1c23.O` [LEVOFLOXACIN], the MIC50 in the test on Mycoplasma genitalium [1] (read-out: MIC50) and in the test on Mycoplasma genitalium [2] was 1 µg/mL each time. The MIC90 in the test on Mycoplasma genitalium [1] (read-out: MIC90) is 2 µg/mL; with Mycoplasma genitalium [2], 4 µg/mL. Also, the MIC in the test on Mycoplasma genitalium [3] (read-out: MIC), in the test on Mycoplasma genitalium [4] (read-out: MIC), in the test with Mycoplasma genitalium [5] (read-out: MIC), with Mycoplasma genitalium [6] (read-out: MIC), in the test with Mycoplasma genitalium [7] (read-out: MIC) and with Mycoplasma genitalium [8] (read-out: MIC) was 1 µg/mL in each case. Also, the MIC with Mycoplasma genitalium [9] (read-out: MIC) worked out at 1 µg/mL; in the test with Mycoplasma genitalium [10] it was 0.125 µg/mL; against Mycoplasma genitalium [11] it was 0.125 µg/mL; in the test with Mycoplasma genitalium [12], 0.125 µg/mL; against Mycoplasma genitalium [13], 0.125 µg/mL; in the test on Mycoplasma genitalium [14] it was 0.125 µg/mL. Besides, the MIC in the test with Mycoplasma genitalium [15], with Mycoplasma genitalium [16], against Mycoplasma genitalium [17], in the test with Mycoplasma genitalium [18], in the test on Mycoplasma genitalium [19] and against Mycoplasma genitalium [20] was 0.125 µg/mL throughout. Further, the MIC against Mycoplasma genitalium [21], with Mycoplasma genitalium [22], against Mycoplasma genitalium [23] and against Mycoplasma genitalium [24] was 0.125 µg/mL each time.

Turning to `N[C@@H]1CN(c2c(F)cc3c(=O)c(C(=O)O)cn([C@@H]4C[C@@H]4F)c3c2Cl)CC12CC2` [SITAFLOXACIN ANHYDROUS], the MIC50 in the test with Mycoplasma genitalium [1] (read-out: MIC50) and against Mycoplasma genitalium [2] was 0.063 µg/mL (≈ 0.154 µM) each time. Moreover, the MIC90 with Mycoplasma genitalium [1] (read-out: MIC90) and in the test on Mycoplasma genitalium [2] was 0.125 µg/mL (≈ 0.305 µM) each time. For the same molecule, the MIC in the test on Mycoplasma genitalium [3] (read-out: MIC), in the test with Mycoplasma genitalium [4] (read-out: MIC), with Mycoplasma genitalium [5] (read-out: MIC), with Mycoplasma genitalium [6] (read-out: MIC), in the test with Mycoplasma genitalium [7] (read-out: MIC) and in the test with Mycoplasma genitalium [8] (read-out: MIC) was 0.063 µg/mL (≈ 0.154 µM) each time. Further, the MIC in the test with Mycoplasma genitalium [9] (read-out: MIC) was 0.063 µg/mL (≈ 0.154 µM); in the test on Mycoplasma genitalium [10], 0.008 µg/mL (≈ 0.0195 µM); in the test with Mycoplasma genitalium [11] it was 0.008 µg/mL (≈ 0.0195 µM); against Mycoplasma genitalium [12], 0.008 µg/mL (≈ 0.0195 µM); in the test with Mycoplasma genitalium [13], 0.008 µg/mL (≈ 0.0195 µM); in the test on Mycoplasma genitalium [14], 0.008 µg/mL (≈ 0.0195 µM). Also, the MIC against Mycoplasma genitalium [15], with Mycoplasma genitalium [16], in the test with Mycoplasma genitalium [17], with Mycoplasma genitalium [18], in the test on Mycoplasma genitalium [19] and in the test on Mycoplasma genitalium [20] was 0.008 µg/mL (≈ 0.0195 µM) in each case. Besides, the MIC against Mycoplasma genitalium [21], in the test with Mycoplasma genitalium [22], against Mycoplasma genitalium [23] and in the test on Mycoplasma genitalium [24] was 0.008 µg/mL (≈ 0.0195 µM) throughout.

The values are drawn from ChEMBL document CHEMBL1649265, “Antimicrobial susceptibilities of Mycoplasma genitalium strains examined by broth dilution and quantitative PCR” (2009).
